The values below come from patent US20260144788A1, “COMPOUND FOR SHP2 PROTEIN DEGRADATION AND MEDICAL USES THEREOF” (UBIX THERAPEUTICS, INC., priority 2022, published 2026).

In the assay the target is T1, SHP2 protein (Homo sapiens, UniProt Q06124).
T1 sequence (Q06124 1-593): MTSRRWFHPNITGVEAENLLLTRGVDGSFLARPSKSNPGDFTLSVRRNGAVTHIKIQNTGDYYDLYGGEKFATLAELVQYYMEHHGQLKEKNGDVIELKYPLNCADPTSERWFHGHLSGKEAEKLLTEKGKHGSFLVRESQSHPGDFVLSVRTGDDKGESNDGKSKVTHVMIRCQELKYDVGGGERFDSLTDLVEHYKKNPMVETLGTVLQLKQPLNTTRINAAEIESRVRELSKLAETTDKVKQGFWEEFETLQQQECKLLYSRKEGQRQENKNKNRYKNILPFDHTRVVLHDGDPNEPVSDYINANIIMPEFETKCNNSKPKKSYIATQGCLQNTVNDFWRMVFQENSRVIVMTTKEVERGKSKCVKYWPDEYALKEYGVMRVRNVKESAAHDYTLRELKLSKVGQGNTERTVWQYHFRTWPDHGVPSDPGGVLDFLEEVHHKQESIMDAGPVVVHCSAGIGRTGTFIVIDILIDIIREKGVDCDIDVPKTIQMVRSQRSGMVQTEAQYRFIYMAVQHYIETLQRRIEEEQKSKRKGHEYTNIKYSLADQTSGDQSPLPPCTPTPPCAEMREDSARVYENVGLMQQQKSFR
The assay can be described thus: Measurement of SHP2 protein degradation in NCI-H358 cells (western blotting). The assay is classed as cell-based. Also noted: endogenous in cells; host or cells: NCI-H358. As to conditions: harvested after 24 hours. The protocol: H358 cells were treated with the synthesized Example compounds, and the amount of SHP2 protein present in the cells was measured using western blotting detection. The protocol for the experiment using H358 cells is as follows.
[Culture]H358 cells were resuspended in RPMI1640 with 25 mM HEPES (Hyclone, SH30255.01), 10% FBS (Hyclone, SV30207.02), 1% Penicillin-streptomycin (Welgene, LS 202-02) media, seeded at 3×10^5/mL in 12-well plates (1 mL each), and cultured for 24 hours.
[Compound treatment] Before compound treatment, the media was changed to 1 mL media, and then the 12-well plate was treated as follows. The 10 mM stock dissolved in DMSO was serially diluted 1/100 or 1/10 with the media, and the compound was treated to the cells at a final concentration of 0.001, 0.01, and 0.1 μM, and harvested after 24 hours. For the negative control group, DMSO diluted 1/1000 in the media was added (1 μL DMSO+999 μL media).
[Harvest]24 hours after compound treatment, each well was scraped with a cell lifter (SPL, 90040), pipetted with a 1 mL pipette, collected in a 1.5 mL microtube, and centrifuged (500 g, 5 min, 4° C.). The supernatant was removed, washed with PBS, and centrifuged again (500 g, 5 min, 4° C.). Afterwards, the supernatant was removed to prepare a pellet.
[Cell lysis and sample preparation] Lysis buffer was prepared as follows. RIPA buffer (Biosesang, RC2038-050-00)+0.5 mM PMSF (SIGMA, P7626)+1× Protease/Phosphatase Inhibitor (Cell signaling, 5872S) were added at 30 μL per tube, vortexed, and incubated on ice for 30 minutes. Afterwards, sonication was performed (10 sec pulse, 30 sec rest, 5 cycles, 70% amplification) and centrifugation was performed (15,000 g, 15 min, 4° C.), and only the supernatant was transferred to a microtube. A 96-well plate was diluted to 1/4 with 7.5 μL of RIPA buffer and 2.5 μL of sample, and 200 μL each was added after mixing A and B of the BCA Protein Assay Kit (iNtRON, 21071) in a ratio of 50:1. The plate was incubated at 37° C. for 30 minutes and left at room temperature for 10 minutes. After shaking for 10 seconds with a SYNERGY H1 microplate reader from BioTek, the absorbance was measured at 562 nm. The protein was quantified using the measured value to make a sample, which was then incubated at 70° C. for 10 minutes. The sample buffer used here was a mixture of NuPAGE or Bolt 4× sample buffer (Invitrogen) and each 10× sample reducing agent depending on the gel to be used, and RIPA buffer was used for protein dilution.
[Western blotting detection] Equal amounts of samples were loaded onto NuPAGE or Bolt Bis-tris 4-12% gradient gel and run (200 V, 35 min). This was transferred to […] NC membrane using Trans-blot Turbo (BIO-RAD) (1.3 A constant, 25 V limit, 15 min), and blocked with 5% skim milk/0.2% TBST for 45 min at room temperature. Anti-SHPTP2 Mouse (1:1,000 in 5% skim milk/0.2% TBST, size: 70 kDa, Santa cruz sc-7384) and Anti-GAPDH Rabbit (1:2,000 in 5% skim milk or 5% BSA/0.2% TBST, size: 37 kDa, CST #2118) were added and incubated overnight at 4° C. After washing three times with 0.2% TBST washing buffer for 5 minutes each, secondary antibodies Anti-Mouse IgG (1:5,000 in 5% skim milk/0.2% TBST, CST) and IRDye® 680RD Goat anti-Rabbit IgG Secondary Antibody (1:10,000 in 5% skim milk/0.2% TBST, LI-COR 926-68071) were added, and incubated on a rocker at room temperature for 45 minutes. The resultants were washed five times with 0.2% TBST washing buffer for 5 minutes each, and detected using LI-COR's Odyssey. GAPDH was detected with a 700 nm channel, and SHPTP2 was detected using SuperSignal West Pico PLUS Chemiluminescent Substrate.

In the case of `Cc1ncsc1-c1ccc(CNC(=O)[C@@H]2C[C@@H](O)CN2C(=O)[C@H](C(C)C)n2cc(C3CC3)nn2)c(OC2CCN(C(=O)C3CCN(c4nccc(Sc5cnc(N6CCC(C)(CN)CC6)cn5)c4Cl)CC3)CC2)c1` [Example 101, (2S,4R)—N-(2-((1-(1-(4-((5-(4-(aminomethyl)-4-methylpiperidin-1-yl)pyrazin-2-yl)thio)-3-chloropyridin-2-yl)piperidine-4-carbonyl)piperidin-4-yl)oxy)-4-(4-methylthiazol-5-yl)benzyl)-1-((S)-2-(4-cyclopropyl-1H-1,2,3-triazol-1-yl)-3-methylbutanoyl)-4-hydroxypyrrolidine-2-carboxamide], the SHP2% degradation is, setting by setting: (0.01 μM) 96.3%; (0.1 μM) 97.4%.

As for `CC(=O)N[C@H](C(=O)N1C[C@H](O)C[C@H]1C(=O)NCc1ccc(-c2scnc2C)cc1OC1CCN(C(=O)C2CCN(c3cccc(Sc4cnc(N5CCC6(CC5)CO[C@@H](C)[C@H]6N)c(CO)n4)c3Cl)CC2)CC1)C(C)(C)C` [Example 85, (2S,4R)-1-((S)-2-acetamido-3,3-dimethylbutanoyl)-N-(2-((1-(1-(3-((5-((3S,4S)-4-amino-3-methyl-2-oxa-8-azaspiro[4.5]decan-8-yl)-6-(hydroxymethyl)pyrazin-2-yl)thio)-2-chlorophenyl)piperidine-4-carbonyl)piperidin-4-yl)oxy)-4-(4-methylthiazol-5-yl)benzyl)-4-hydroxypyrrolidine-2-carboxamide], the SHP2% degradation (0.01 μM) worked out at 98.3% and the SHP2% degradation (0.1 μM) amounted to 99.9%.

Take `CC(=O)N[C@H](C(=O)N1C[C@H](O)C[C@H]1C(=O)NCc1ccc(-c2scnc2C)cc1O[C@H]1CC[C@H](C(=O)N2CCC(N3CCOc4c(Sc5cnc(N6CCC(C)(CN)CC6)cn5)cccc43)CC2)CC1)C(C)(C)C` [Example 35, (2S,4R)-1-((S)-2-acetamido-3,3-dimethylbutanoyl)-N-(2-(((1r,4S)-4-(4-(8-((5-(4-(aminomethyl)-4-methylpiperidin-1-yl)pyrazin-2-yl)thio)-2,3-dihydro-4H-benzo[b][1,4]oxazin-4-yl)piperidine-1-carbonyl)cyclohexyl)oxy)-4-(4-methylthiazol-5-yl)benzyl)-4-hydroxypyrrolidine-2-carboxamide]: the SHP2% degradation turned out to be 66.8% (0.01 μM) and 97.7% (0.1 μM).

For `Cc1cn([C@H](C(=O)N2C[C@H](O)C[C@H]2C(=O)NCc2ccc(-c3scnc3C)cc2OC2CCN(C(=O)C3CCN(c4nccc(Sc5cnc(N6CCC(C)(CN)CC6)c(CO)n5)c4Cl)CC3)CC2)C(C)C)nn1` [Example 108, (2S,4R)—N-(2-((1-(1-(4-((5-(4-(aminomethyl)-4-methylpiperidin-1-yl)-6-(hydroxymethyl)pyrazin-2-yl)thio)-3-chloropyridin-2-yl)piperidine-4-carbonyl)piperidin-4-yl)oxy)-4-(4-methylthiazol-5-yl)benzyl)-4-hydroxy-1-((S)-3-methyl-2-(4-methyl-1H-1,2,3-triazol-1-yl)butanoyl)pyrrolidine-2-carboxamide], the SHP2% degradation (0.01 μM) stood at 99.1% and the SHP2% degradation (0.1 μM) stood at 99.6%.

As to `Cc1cn([C@H](C(=O)N2C[C@H](O)C[C@H]2C(=O)NCc2ccc(C#N)cc2OC2CCN(C(=O)C3CCN(c4nccc(Sc5cnc(N6CCC7(CC6)CO[C@@H](C)[C@H]7N)c(CO)n5)c4Cl)CC3)CC2)C(C)C)nn1` [Example 113, (2S,4R)—N-(2-((1-(1-(4-((5-((3S,4S)-4-amino-3-methyl-2-oxa-8-azaspiro[4.5]decan-8-yl)-6-(hydroxymethyl)pyrazin-2-yl)thio)-3-chloropyridin-2-yl)piperidine-4-carbonyl)piperidin-4-yl)oxy)-4-cyanobenzyl)-4-hydroxy-1-((S)-3-methyl-2-(4-methyl-1H-1,2,3-triazol-1-yl)butanoyl)pyrrolidine-2-carboxamide], the SHP2% degradation is reported as 96.2% (0.01 μM) and 99.8% (0.1 μM).

Regarding `Cc1cnn(C(C(=O)N2C[C@H](O)C[C@H]2C(=O)NCc2ccc(-c3scnc3C)cc2OC2CCN(C(=O)C3CCN(c4nccc(Sc5cnc(N6CCC(C)(CN)CC6)cn5)c4Cl)CC3)CC2)C(C)C)c1` (stereo partly drawn) [Example 99, (2S,4R)—N-(2-((1-(1-(4-((5-(4-(aminomethyl)-4-methylpiperidin-1-yl)pyrazin-2-yl)thio)-3-chloropyridin-2-yl)piperidine-4-carbonyl)piperidin-4-yl)oxy)-4-(4-methylthiazol-5-yl)benzyl)-4-hydroxy-1-(3-methyl-2-(4-methyl-1H-pyrazol-1-yl)butanoyl)pyrrolidine-2-carboxamide], the SHP2% degradation runs as follows: (0.01 μM) −4.8%; (0.1 μM) 91.5%.

As for `Cc1ncsc1-c1ccc(CNC(=O)[C@@H]2C[C@@H](O)CN2C(=O)[C@@H](NC(=O)C2(F)CC2)C(C)(C)C)c(OC2CCN(C(=O)CC3CN(c4nccc(Sc5cnc(N6CCC(C)(CN)CC6)cn5)c4Cl)C3)CC2)c1` [Example 64, (2S,4R)—N-(2-((1-(2-(1-(4-((5-(4-(aminomethyl)-4-methylpiperidin-1-yl)pyrazin-2-yl)thio)-3-chloropyridin-2-yl)azetidin-3-yl)acetyl)piperidin-4-yl)oxy)-4-(4-methylthiazol-5-yl)benzyl)-1-((S)-2-(1-fluorocyclopropane-1-carboxamido)-3,3-dimethylbutanoyl)-4-hydroxypyrrolidine-2-carboxamide], the SHP2% degradation reads like this: (0.01 μM) 87.9%; (0.1 μM) 99.8%.

In the case of `CC(=O)N[C@H](C(=O)N1C[C@H](O)C[C@H]1C(=O)NCc1ccc(-c2scnc2C)cc1O[C@H]1CC[C@H](C(=O)N2CC(N3CCOc4c(Sc5cnc(N6CCC(C)(CN)CC6)cn5)cccc43)C2)CC1)C(C)(C)C` [Example 34, (2S,4R)-1-((S)-2-acetamido-3,3-dimethylbutanoyl)-N-(2-(((1R,4S)-4-(3-(8-((5-(4-(aminomethyl)-4-methylpiperidin-1-yl)pyrazin-2-yl)thio)-2,3-dihydro-4H-benzo[b][1,4]oxazin-4-yl)azetidine-1-carbonyl)cyclohexyl)oxy)-4-(4-methylthiazol-5-yl)benzyl)-4-hydroxypyrrolidine-2-carboxamide], the SHP2% degradation is −36.9% (0.01 μM) and 73.0% (0.1 μM).
